ChEMBL document CHEMBL1156251, “Structure--activity relationships of polymyxin antibiotics” (J Med Chem, 2010)
Converted amounts (≈) assume the structure as drawn. Where a SMILES comes first, the peptide text is derived from it. Bridges are numbered along the chain shown (N, C = ends). [ ]: non-standard residue; d: D form. The star is where a group is joined. Octanoyl = CCCCCCCC(=O)*; Dab = NCC[C@H](N)C(=O)O

What was measured:
Escherichia coli [1] = assay: Antimicrobial activity against Escherichia coli; assay type: functional
Klebsiella pneumoniae = assay: Antimicrobial activity against Klebsiella pneumoniae; assay type: functional
Pseudomonas aeruginosa = assay: Antimicrobial activity against Pseudomonas aeruginosa; assay type: functional, organism-based
Escherichia coli [2] = assay: Antimicrobial activity against Escherichia coli at 10 ug/mL; assay type: functional

Structure (SMILES)	MIC (Escherichia coli [1]) [µg/mL]	MIC (Klebsiella pneumoniae) [µg/mL]	MIC (Pseudomonas aeruginosa) [µg/mL]	GI (Escherichia coli [2]) [square millimeter]
CCCCCCCC(=O)N[C@@H](CCN)C(=O)N[C@H](C(=O)N[C@@H](CCN)C(=O)N[C@H]1CCNC(=O)[C@H]([C@@H](C)O)NC(=O)[C@H](CCNC(=O)[C@H](N)CCSC)NC(=O)[C@H](CCN)NC(=O)[C@H](CC(C)C)NC(=O)[C@@H](Cc2ccccc2)NC(=O)[C@H](CCN)NC1=O)[C@@H](C)O	0.77 (≈ 0.583 µM)	5.65 (≈ 4.28 µM)	0.416 (≈ 0.315 µM)	–
CCCCCCCC(=O)N[C@H](C(=O)N[C@@H](CO)C(=O)N[C@H]1CCNC(=O)[C@H]([C@@H](C)O)NC(=O)[C@H](CCN)NC(=O)[C@H](CCN)NC(=O)[C@H](CC(C)C)NC(=O)[C@@H](Cc2ccccc2)NC(=O)[C@H](CCN)NC1=O)[C@@H](C)O (Octanoyl-TS[Dab][Dab][dF]L[Dab][Dab]T; lactam 3-C)	–	–	–	171
CCCCCCCC(=O)N[C@H](C(=O)N[C@@H](CCN)C(=O)N[C@H]1CCNC(=O)[C@H]([C@@H](C)O)NC(=O)[C@H](CCN)NC(=O)[C@H](CC)NC(=O)[C@H](CC(C)C)NC(=O)[C@@H](Cc2ccccc2)NC(=O)[C@H](CCN)NC1=O)[C@@H](C)O	–	–	–	60
CCCCCCCC(=O)N[C@@H](CCN)C(=O)N[C@H](C(=O)N[C@@H](CCN)C(=O)N[C@H]1CCNC(=O)[C@H]([C@@H](C)O)NC(=O)[C@H](CCNC(=O)[C@@H](N)CS)NC(=O)[C@H](CCN)NC(=O)[C@H](CC(C)C)NC(=O)[C@@H](Cc2ccccc2)NC(=O)[C@H](CCN)NC1=O)[C@@H](C)O	1.68 (≈ 1.3 µM)	11.3 (≈ 8.75 µM)	2.82 (≈ 2.18 µM)	–
CCCCCCCC(=O)N[C@@H](CCN)C(=O)N[C@H](C(=O)N[C@@H](CCN)C(=O)N[C@H]1CCNC(=O)[C@H]([C@@H](C)O)NC(=O)[C@H](CCNC(=O)CCl)NC(=O)[C@H](CCN)NC(=O)[C@H](CC(C)C)NC(=O)[C@@H](Cc2ccccc2)NC(=O)[C@H](CCN)NC1=O)[C@@H](C)O [CHLOROACETYL DAB9 POLYMYXIN B]	0.454 (≈ 0.359 µM)	9.5 (≈ 7.5 µM)	0.085 (≈ 0.0671 µM)	–
CCCCCCCC(=O)N[C@@H](CCN)C(=O)N[C@H](C(=O)N[C@@H](CCN)C(=O)N[C@H]1CCNC(=O)[C@H]([C@@H](C)O)NC(=O)[C@H](CCNC(=O)CO)NC(=O)[C@H](CCN)NC(=O)[C@H](CC(C)C)NC(=O)[C@@H](Cc2ccccc2)NC(=O)[C@H](CCN)NC1=O)[C@@H](C)O [HYDROXYACETYL DAB9 POLYMYXIN B]	1.54 (≈ 1.23 µM)	22.6 (≈ 18.1 µM)	1.53 (≈ 1.23 µM)	–
CCCCCCC(=O)N[C@H](C(=O)N[C@H](CO)C(=O)N[C@H]1CCNC(=O)[C@H]([C@@H](C)O)NC(=O)[C@H](CCN)NC(=O)[C@H](CCN)NC(=O)[C@H]([C@H](C)O)NC(=O)[C@@H](Cc2ccccc2)NC(=O)[C@H](CCN)NC1=O)[C@@H](C)O	–	–	–	200
CCCCCCCC(=O)N[C@H](C(=O)N[C@@H](CCC(N)=O)C(=O)N[C@H]1CCNC(=O)[C@H]([C@@H](C)O)NC(=O)[C@H](CCN)NC(=O)[C@H](CCN)NC(=O)[C@H](CC(C)C)NC(=O)[C@@H](Cc2ccccc2)NC(=O)[C@H](CCN)NC1=O)[C@@H](C)O	–	–	–	10
CC(C)C[C@@H]1NC(=O)[C@@H](Cc2ccccc2)NC(=O)[C@H](CCN)NC(=O)[C@@H](NC(=O)[C@H](CCN)NC(=O)[C@H](NC(=O)[C@H](C)NC(=O)[C@@H](C)NC(=O)[C@H](C)NC(=O)[C@H](C)NC(=O)[C@@H](C)NC(=O)[C@H](C)N)[C@@H](C)O)CCNC(=O)[C@@H]([C@@H](C)O)NC(=O)[C@H](CCN)NC(=O)[C@H](CCN)NC1=O	≥ 500	≥ 500	≥ 500	–
CC(C)C[C@@H]1NC(=O)[C@@H](Cc2ccccc2)NC(=O)[C@H](CCN)NC(=O)[C@@H](NC(=O)[C@H](CCN)NC(=O)[C@H](NC(=O)[C@H](C)NC(=O)[C@@H](C)NC(=O)[C@H](C)N)[C@@H](C)O)CCNC(=O)[C@@H]([C@@H](C)O)NC(=O)[C@H](CCN)NC(=O)[C@H](CCN)NC1=O	≥ 500	≥ 500	≥ 500	–
CCCCCCCC(=O)N[C@@H](CCN)C(=O)N[C@@H](C(=O)N[C@@H](CCN)C(=O)N[C@H]1CCNC(=O)[C@H]([C@@H](C)O)NC(=O)[C@H](CCNCCCCCC(C)CC)NC(=O)[C@H](CCN)NC(=O)[C@H](CC(C)C)NC(=O)[C@@H](Cc2ccccc2)NC(=O)[C@H](CCN)NC1=O)[C@@H](C)O (stereo not given in full)	3.1 (≈ 2.36 µM)	0.7 (≈ 0.532 µM)	2.18 (≈ 1.66 µM)	–
CCCCCCCC(=O)N[C@@H](CCN)C(=O)N[C@H](C(=O)N[C@@H](CCN)C(=O)N[C@H]1CCNC(=O)[C@H]([C@@H](C)O)NC(=O)[C@H](CCNC(=O)C(Cl)Cl)NC(=O)[C@H](CCN)NC(=O)[C@H](CC(C)C)NC(=O)[C@@H](Cc2ccccc2)NC(=O)[C@H](CCN)NC1=O)[C@@H](C)O [DICHLOROACETYL DAB9 POLYMYXIN B]	1.54 (≈ 1.18 µM)	0.82 (≈ 0.631 µM)	0.995 (≈ 0.765 µM)	–
CCCCCCCC(=O)N[C@@H](CCN)C(=O)N[C@H](C(=O)N[C@@H](CCN)C(=O)N[C@H]1CCNC(=O)[C@H]([C@@H](C)O)NC(=O)[C@H](CCNC(=O)C(N)CCCN)NC(=O)[C@H](CCN)NC(=O)[C@H](CC(C)C)NC(=O)[C@@H](Cc2ccccc2)NC(=O)[C@H](CCN)NC1=O)[C@@H](C)O (stereo partly drawn) [L-LYSYL DAB9 POLYMYXIN B]	0.173 (≈ 0.133 µM)	2.8 (≈ 2.15 µM)	0.032 (≈ 0.0245 µM)	–
CCCCCCCC(=O)N[C@@H](CCN)C(=O)N[C@H](C(=O)N[C@@H](CCN)C(=O)N[C@H]1CCNC(=O)[C@H]([C@@H](C)O)NC(=O)[C@H](CCNC(C)C)NC(=O)[C@H](CCN)NC(=O)[C@H](CC(C)C)NC(=O)[C@@H](Cc2ccccc2)NC(=O)[C@H](CCN)NC1=O)[C@@H](C)O [DIMETHYL DAB9 POLYMYXIN B]	0.537 (≈ 0.436 µM)	16 (≈ 13 µM)	0.456 (≈ 0.37 µM)	–
CC(C)C[C@@H]1NC(=O)[C@@H](Cc2ccccc2)NC(=O)[C@H](CCN)NC(=O)[C@@H](NC(=O)[C@H](CCN)NC(=O)[C@H](NC(=O)OCC2c3ccccc3-c3ccccc32)[C@@H](C)O)CCNC(=O)[C@@H]([C@@H](C)O)NC(=O)[C@H](CCN)NC(=O)[C@H](CCN)NC1=O	0.8 (≈ 0.675 µM)	62 (≈ 52.3 µM)	8 (≈ 6.75 µM)	–
CC(C)C[C@@H]1NC(=O)[C@@H](Cc2ccccc2)NC(=O)[C@H](CCN)NC(=O)[C@@H](NC(=O)[C@H](CCN)NC(=O)[C@H](NC(=O)[C@H](CCN)NC(=O)OCC2c3ccccc3-c3ccccc32)[C@@H](C)O)CCNC(=O)[C@@H]([C@@H](C)O)NC(=O)[C@H](CCN)NC(=O)[C@H](CCN)NC1=O	8 (≈ 6.22 µM)	16 (≈ 12.4 µM)	4 (≈ 3.11 µM)	–
CCCCCCCC(=O)N[C@@H](CCN)C(=O)N[C@H](C(=O)N[C@@H](CCN)C(=O)N[C@H]1CCNC(=O)[C@H]([C@@H](C)O)NC(=O)[C@H](CCNC(=O)[C@@H](N)Cc2ccc(O)cc2)NC(=O)[C@H](CCN)NC(=O)[C@H](CC(C)C)NC(=O)[C@@H](Cc2ccccc2)NC(=O)[C@H](CCN)NC1=O)[C@@H](C)O	0.175 (≈ 0.129 µM)	2.2 (≈ 1.63 µM)	0.073 (≈ 0.054 µM)	–
CCC(C)CCCCC(=O)N[C@@H](CCNCc1ccc(O)cc1)C(=O)N[C@H](C(=O)N[C@@H](CCN)C(=O)N[C@H]1CCNC(=O)[C@H]([C@@H](C)O)NC(=O)[C@H](CCNCc2ccc(O)cc2)NC(=O)[C@H](CCNCc2cccc(O)c2)NC(=O)[C@H](CC(C)C)NC(=O)[C@@H](CC(C)C)NC(=O)[C@H](CCNCc2ccc(O)cc2)NC1=O)[C@@H](C)O (stereo not given in full)	5.5 (≈ 3.45 µM)	1.4 (≈ 0.878 µM)	–	–
